# Measurements published in patent US8735414B2 (priority 2009, dated 2014).
# Test system: bicistronic HCV replicon (replicon RNA, GenBank Accession No. AJ242654)
# Experiment: HCV Replicon Assay
# Type: cell-based
# Conditions: Hepatitis C virus, 72 h, read-out: Replicon IC50
row,Structure (SMILES),IC50 [µM]
1,"N#Cc1c(-c2ncc(S(=O)(=O)NC(CF)CF)cn2)n(C2CCC2)c2cc(C(F)F)ccc12 [compound 330, 2-[3-cyano-1-cyclobutyl-6-(difluoromethyl)-1H-indol-2-yl]-N-(1,3-difluoropropan-2-yl)pyrimidine-5-sulfonamide]",< 0.5
2,"Cc1cc2c(cc1F)cc(-c1ccc(S(=O)(=O)N[C@@H](C)C(F)(F)F)cn1)n2-c1ccc(C#N)o1 [compound 1060, 6-[1-(5-cyanofuran-2-yl)-5-fluoro-6-methyl-1H-indol-2-yl]-N-[(2S)-1,1,1-trifluoropropan-2-yl]pyridine-3-sulfonamide]",2 to 5
3,"CCc1cc2c(cc1F)c(C#N)c(-c1ccc(S(=O)(=O)N[C@H](C)C(F)(F)F)cn1)n2-c1ccccn1 [compound 879, 6-[3-cyano-6-ethyl-5-fluoro-1-(pyridin-2-yl)-1H-indol-2-yl]-N-[(2R)-1,1,1-trifluoropropan-2-yl]pyridine-3-sulfonamide]",< 0.5
4,"Cc1cc2c(cc1F)cc(-c1ccc(S(=O)(=O)N[C@@H](C)C(F)(F)F)cn1)n2C1CCCC1 [compound 760, 6-(1-cyclopentyl-5-fluoro-6-methyl-1H-indol-2-yl)-N-[(2S)-1,1,1-trifluoropropan-2-yl]pyridine-3-sulfonamide]",< 0.5
5,"CC(C)n1c(-c2ncc(S(=O)(=O)NC(CF)CF)cn2)c(C#N)c2cc(Cl)ccc21 [compound 187, 2-[5-chloro-3-cyano-1-(propan-2-yl)-1H-indol-2-yl]-N-(1,3-difluoropropan-2-yl)pyrimidine-5-sulfonamide]",< 0.5
6,"CC(C)(C)S(=O)(=O)Nc1ccc(-c2c(C(=O)O)c3cc(F)c(OC(F)F)cc3n2C2CCCCC2)cn1 [compound 1064, 2-{6-[(tert-butylsulfonyl)amino]pyridin-3-yl}-1-cyclohexyl-6-(difluoromethoxy)-5-fluoro-1H-indole-3-carboxylic acid]",< 0.5
7,"Cc1cc2c(cc1F)c(C#N)c(-c1cc(C)c(S(=O)(=O)N[C@@H](C)C(F)(F)F)cn1)n2-c1ncccn1 [compound 853, 6-[3-cyano-5-fluoro-6-methyl-1-(pyrimidin-2-yl)-1H-indol-2-yl]-4-methyl-N-[(2S)-1,1,1-trifluoropropan-2-yl]pyridine-3-sulfonamide]",< 0.5
8,"CCc1cc2c(cc1F)c(C(N)=O)c(-c1ccc(S(=O)(=O)N[C@@H](C)C(F)(F)F)cn1)n2-c1ccccn1 [compound 909, 6-ethyl-5-fluoro-1-(pyridin-2-yl)-2-(5-{[(2S)-1,1,1-trifluoropropan-2-yl]sulfamoyl}pyridin-2-yl)-1H-indole-3-carboxamide]",0.5 to 2
9,"Cc1cc2c(cc1F)c(C(=O)O)c(-c1ccc(S(=O)(=O)NC(C)(C)C)cn1)n2C1CCC1 [compound 776, 2-[5-(tert-butylsulfamoyl)pyridin-2-yl]-1-cyclobutyl-5-fluoro-6-methyl-1H-indole-3-carboxylic acid]",< 0.5
10,"Cc1ccc2c(C#N)c(-c3ncc(S(=O)(=O)N[C@@H](C)C4CC4)cn3)n(C3CCC3)c2c1 [compound 202, 2-(3-cyano-1-cyclobutyl-6-methyl-1H-indol-2-yl)-N-[(1S)-1-cyclopropylethyl]pyrimidine-5-sulfonamide]",< 0.5
11,"CCc1cc2c(cc1F)c(C(N)=O)c(-c1ccc(S(=O)(=O)NC(C)(C)C)cn1)n2-c1ccccn1 [compound 883, 2-(5-(N-tert-butylsulfamoyl)pyridin-2-yl)-6-ethyl-5-fluoro-1-(pyridin-2-yl)-1H-indole-3-carboxamide]",< 0.5
12,"COc1ccc2c(C#N)c(-c3ccc(S(=O)(=O)NC4CC(F)(F)C4)cn3)n(C3CCCC3)c2c1 [compound 246, 6-(3-cyano-1-cyclopentyl-6-methoxy-1H-indol-2-yl)-N-(3,3-difluorocyclobutyl)pyridine-3-sulfonamide]",0.5 to 2
13,"CC(C)(NS(=O)(=O)c1ccc(-c2c(C#N)c3cc(F)c(OC(F)F)cc3n2C2CCCC2)nc1)C(F)(F)F [compound 862, 6-[3-cyano-1-cyclopentyl-6-(difluoromethoxy)-5-fluoro-1H-indol-2-yl]-N-(1,1,1-trifluoro-2-methylpropan-2-yl)pyridine-3-sulfonamide]",< 0.5
